Results as given in ChEMBL document CHEMBL4732046, “A red-light-activated sulfonamide porphycene for highly efficient photodynamic therapy against hypoxic tumor” (Eur J Med Chem, 2021).
Active and inactive are the calls of the source. The rule behind the calls is not given here.

Tests used:
B16 [1] = assay: Induction of apoptosis in mouse B16 cells assessed as increase in cleaved caspase 9 level at 200 to 400 nM irradiated with 640 +/- 15 nm red LED for 1 hrs measured after 24 hrs by Western blot analysis; format: functional, cell-based; details: dose 200-400 nM
B16 [2] = assay: Antitumor activity against mouse B16 cells xenografted in C57BL/6J mouse assessed as tumor growth inhibition at high dose intratumorally once every 2 days for 2 weeks followed every dosing irradiated with 640 +/- 15 nm red LED for 4 hrs measured after 14 days treatment; format: functional, cell-based; details: time 14.0 day
A-375 [3] = assay: Induction of mitochondrial membrane potential disruption in human A-375 cells assessed as reduction in red fluorescence upto 300 nM irradiated with 640 +/- 15 nm red LED for 1 hrs measured after 24 hrs by JC1 staining based fluorescence microscopy; format: functional, cell-based; details: dose nM <=300, time 24.0 hrs
B16 [4] = assay: Induction of intracellular reactive oxygen species production in mouse B16 cells irradiated with 640 +/- 15 nm red LED for 1 hrs measured after 4 hrs by DCFH-DA probe based flow cytometry; format: functional, cell-based; details: dose nM <=400, time 4.0 hrs
A-375 [5] = assay: Antitumor activity against human A-375 cells xenografted in BALB/c mouse assessed as tumor growth inhibition at 50 uM, IT once every 2 days for 2 weeks followed every dosing irradiated with 640 +/- 15 nm red LED for 4 hrs; format: functional, cell-based
[6] = Toxicity in C57BL/6 mouse model assessed as change in white blood cell count measured after 14 days; format: tissue-based; details: 336 h, time 14 day
B16 [7] = assay: Photocytotoxicity against mouse B16 cells assessed as reduction in cell viability irradiated with 640 +/- 15 nm red LED for 4 hrs measured after 24 hrs by MTT assay; format: functional, cell-based; details: B16, light or radiation study
HeLa [8] = assay: Photocytotoxicity against human HeLa cells assessed as reduction in cell viability irradiated with 640 +/- 15 nm red LED for 4 hrs measured after 24 hrs under hypoxic condition by MTT assay; format: functional, cell-based; details: light or radiation study
B16 [9] = assay: Induction of apoptosis in mouse B16 cells assessed as increase in cleaved caspase 3 level at 200 to 400 nM irradiated with 640 +/- 15 nm red LED for 1 hrs measured after 24 hrs by Western blot analysis; format: functional, cell-based; details: dose 200-400 nM
[10] = Toxicity in BALB/c mouse xenografted with human A-375 cells assessed as body weight at 50 uM, IT once every 2 days for 2 weeks followed every dosing irradiated with 640 +/- 15 nm red LED for 4 hrs; details: in vivo, other, 336 h
B16 [11] = assay: Antiproliferative activity against mouse B16 cells assessed as inhibition of cell proliferation irradiated with 640 +/- 15 nm red LED for 4 hrs in presence of 30 uM L-histidine measured after 24 hrs by MTT assay; format: functional, cell-based
B16 [12] = assay: Induction of apoptosis in mouse B16 cells assessed as decrease in Bid level at 200 to 400 nM irradiated with 640 +/- 15 nm red LED for 1 hrs measured after 24 hrs by Western blot analysis; format: functional, cell-based; details: dose 200-400 nM
HeLa [13] = assay: Photocytotoxicity against human HeLa cells assessed as reduction in cell viability irradiated with 640 +/- 15 nm red LED for 4 hrs measured after 24 hrs by MTT assay; format: functional, cell-based; details: light or radiation study
[14] = Drug uptake in human A-375 cells incubated for 24 hrs in presence of 2-deoxyglucose and sodium azide by mito-tracker green based confocal microscopic method; format: ADME, cell-based; details: a-375, 24 h
A-375 [15] = assay: Antiproliferative activity against human A-375 cells assessed as inhibition of cell proliferation irradiated with 640 +/- 15 nm red LED for 4 hrs in presence of 30 uM D-mannitol measured after 24 hrs under hypoxic condition by MTT assay; format: functional, cell-based
A-375 [16] = assay: Induction of apoptosis in human A-375 cells assessed as apoptotic cells at 300 nM […] irradiated with 640 +/- 15 nm red LED for 1 hrs after 24 hrs by Annexin V-FITC/propidium iodide staining based flow cytometric analysis relative to control; format: functional, cell-based
A-375 [17] = assay: Induction of apoptosis in human A-375 cells assessed as decrease in Bid level at 100 to 300 nM irradiated with 640 +/- 15 nm red LED for 1 hrs measured after 24 hrs by Western blot analysis; format: functional, cell-based; details: dose 100-300 nM
A-375 [18] = assay: Photocytotoxicity against human A-375 cells assessed as reduction in cell viability irradiated with 640 +/- 15 nm red LED for 4 hrs measured after 24 hrs by MTT assay; format: functional, cell-based; details: A-375, light or radiation study
[19] = Toxicity in C57BL/6 mouse assessed as effect on aspartate aminotransferase level measured after 2 days; details: in vivo, 48 h, time 2 day
B16 [20] = assay: Antiproliferative activity against mouse B16 cells assessed as inhibition of cell proliferation irradiated with 640 +/- 15 nm red LED for 4 hrs in presence of 30 uM D-mannitol measured after 24 hrs by MTT assay; format: functional, cell-based
A-375 [21] = assay: Antiproliferative activity against human A-375 cells assessed as inhibition of cell proliferation irradiated with 640 +/- 15 nm red LED for 4 hrs in presence of 30 uM L-histidine measured after 24 hrs under hypoxic condition by MTT assay; format: functional, cell-based
A-375 [22] = assay: Induction of apoptosis in human A-375 cells assessed as increase in cleaved caspase 9 level at 100 to 300 nM irradiated with 640 +/- 15 nm red LED for 1 hrs measured after 24 hrs by Western blot analysis; format: functional, cell-based; details: dose 100-300 nM
[23] = Toxicity in C57BL/6 mouse assessed as effect on lactate dehydrogenase level measured upto 14 days; details: in vivo, 336 h, time <=14 day
A-375 [24] = assay: Antiproliferative activity against human A-375 cells assessed as inhibition of cell proliferation irradiated with 640 +/- 15 nm red LED for 4 hrs in presence of 30 uM L-histidine measured after 24 hrs by MTT assay; format: functional, cell-based
[25] = Toxicity in C57BL/6 mouse assessed as effect on blood urea nitrogen level measured upto 14 days; details: in vivo, 336 h, time <=14 day
A-375 [26] = assay: Antiproliferative activity against human A-375 cells assessed as inhibition of cell proliferation irradiated with 640 +/- 15 nm red LED for 4 hrs in presence of 30 uM D-mannitol measured after 24 hrs by MTT assay; format: functional, cell-based
B16 [27] = assay: Induction of apoptosis in mouse B16 cells assessed as increase in Bad level at 200 to 400 nM irradiated with 640 +/- 15 nm red LED for 1 hrs measured after 24 hrs by Western blot analysis; format: functional, cell-based; details: dose 200-400 nM
KYSE-70 cell line = assay: Photocytotoxicity against human KYSE-70 cells assessed as reduction in cell viability irradiated with 640 +/- 15 nm red LED for 4 hrs measured after 24 hrs by MTT assay; format: functional, cell-based; details: KYSE-70, light or radiation study
[28] = Drug uptake in human A-375 cells upto 2 hrs by flow cytometric analysis; format: ADME, cell-based; details: a-375, 2 h
B16 [29] = assay: Antiproliferative activity against mouse B16 cells assessed as inhibition of cell proliferation irradiated with 640 +/- 15 nm red LED for 4 hrs in presence of 30 uM L-histidine measured after 24 hrs under hypoxic condition by MTT assay; format: functional, cell-based
[30] = Toxicity in C57BL/6 mouse xenografted with mouse B16 cells assessed as body weight at high dose intratumorally once every 2 days for 2 weeks followed every dosing irradiated with 640 +/- 15 nm red LED for 4 hrs measured after 14 days treatment; details: in vivo, other, 336 h, time 14 day
[31] = Toxicity in C57BL/6 mouse assessed as effect on alanine aminotransferase level measured after 7 days; details: in vivo, 168 h, time 7 day

## CC(C)(C)C1=Cc2nc1ccc1[nH]c(cc1S(=O)(=O)NCCOCCO)c1nc(ccc3[nH]c2cc3C(C)(C)C)C(C(C)(C)C)=C1
B16 [1]
  Activity: Active
B16 [2]
  Activity: Active
A-375 [3]
  Activity: Active
B16 [4]
  Activity: Dose-dependent effect
A-375 [5]
  Activity: Active
[6]
  Activity: Non-Toxic
B16 [7]
  DC50: 323 nM
HeLa [8]
  DC50: 49 nM
B16 [9]
  Activity: Active
[10]
  Activity: Non-Toxic
B16 [11]
  Activity: Active
B16 [12]
  Activity: Active
HeLa [13]
  DC50: 15 nM
[14]
  Drug uptake: Not Active
A-375 [15]
  Activity: inactive
A-375 [16]
  Activity: Active
A-375 [17]
  Activity: Active
A-375 [18]
  DC50: 192 nM
[19]
  Activity: Toxic
B16 [20]
  Activity: inactive
A-375 [21]
  Activity: Active
A-375 [22]
  Activity: Active
[23]
  Activity: Non-Toxic
A-375 [24]
  Activity: Active
[25]
  Activity: Non-Toxic
A-375 [26]
  Activity: inactive
B16 [27]
  Activity: Active
KYSE-70 cell line
  DC50: 31 nM
[28]
  Drug uptake: Active
B16 [29]
  Activity: Active
[30]
  Activity: Non-Toxic
[31]
  Activity: Toxic
